Where two headings read alike, the source gives them in different places.

In one test the target is β-lactamase. Kind of test: β-Lactamase enzyme inhibitory activity assay. The class given is biochemical. As to conditions: β-lactamase inhibition assay. The procedure: . The percent inhibitory curves for the candidate natural compounds with efficacy for NDM-1 and β-lactamase enzyme are given in Figures 5(a) and 5(b). The natural compounds were incubated with NDM-1 enzyme, and the substrate, nitrocefin, and hydrolysis of the substrate were monitored at 490 nm OD.
The eight candidate natural compounds identified by in silico analysis against NDM-1 were also tested for β-lactamase inhibition assay. […]

Another test concerns the target T1, Recombinant NDM-1 enzyme (Klebsiella pneumoniae, UniProt C7C422).
T1 construct: purchased RayBiotech Life 230-00554-500
In words: biochemical. The procedure:
The NDM-1 enzyme inhibition assay was carried out spectrophotometrically using nitrocefin as a chromogenic substrate as described previously [27].
The natural compounds were incubated with NDM-1 enzyme, and the substrate, nitrocefin, and hydrolysis of the substrate were monitored at 490 nm OD.

In test [1] the test system is PAN resistance A. baumannii clinical isolate (strain number: P-29). Kind of test: Checkerboard synergy titration assay with imipenem (FIC). As to conditions: compound 128 mg/L with imipenem; carbapenem-resistant A. baumannii clinical strain. It is filed as cell-based. Here is the method: The combined effect of the natural compounds and imipenem (Zhejiang Hisun Pharmaceutical, China) was done using the checkerboard synergy titration assay in a 96-well microtitre plate. Imipenem was tested at concentrations of […] than their MIC and two dilutions higher than the MIC. MIC concentration of imipenem (4x) was added in all wells under column 1 of the 96-well checkerboard panel for each concentration of natural compounds (one each row). The compounds were serially diluted at different subinhibitory concentrations, and each concentration was added to the corresponding rows.
A FIC = 0.5 for a compound was taken as synergistic, FIC > 0.5 − 4 was additive/indifferent, and FIC > 4 was taken as antagonistic.
The checkerboard method was used to design the dilution panel, with twofold concentrations above the MIC of the antibiotics and MIC concentration and fivefold below the MIC.

Where [2] appears, read: 1 nM NDM-1, 10 μM ZnSO4, nitrocefin 60 μM, 490 nm, 30°C, compounds 10-100 μM, read-out: IC50 NDM-1 enzyme activity.

T1 sequence (C7C422 29-270 limits assumed): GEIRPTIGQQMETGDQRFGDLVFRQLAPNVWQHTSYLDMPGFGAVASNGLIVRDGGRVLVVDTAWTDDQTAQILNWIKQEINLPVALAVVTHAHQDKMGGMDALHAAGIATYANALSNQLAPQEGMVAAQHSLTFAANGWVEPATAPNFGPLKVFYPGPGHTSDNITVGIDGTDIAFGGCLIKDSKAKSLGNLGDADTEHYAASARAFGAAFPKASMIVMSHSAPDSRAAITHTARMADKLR

For the compound `CC1(C)[C@H](C(=O)O)N2C(=O)C[C@H]2S1(=O)=O` [sulbactam, reference compound], the IC50 (commonly the concentration that gives 50% inhibition) against β-lactamase worked out at 7.24 ± 0.392 µM.
Take `C[C@@H]1O[C@@H](OC[C@H]2O[C@@H](Oc3c(-c4ccc(O)c(O)c4)oc4cc(O)cc(O)c4c3=O)[C@H](O)[C@@H](O)[C@@H]2O)[C@H](O)[C@H](O)[C@H]1O` [Rutin]: the IC50 amounted to 127 ± 15.9 µM at β-lactamase and 48.9 ± 3.74 µM on Recombinant NDM-1 enzyme (setting [2]).
For `COc1c(O)cc2oc3cc(O)c(CC=C(C)C)c(O)c3c(=O)c2c1CC=C(C)C` [Mangostin] the same measures were 136 ± 37.1 µM and 97.5 ± 5.59 µM.
Turning to `CC1=C(CO)C(=O)O[C@@H]([C@@H](C)[C@H]2CC[C@H]3[C@@H]4C[C@H]5O[C@]56[C@@H](O)C=CC(=O)[C@]6(C)[C@H]4CC[C@]23C)C1` [Withaferin A], the figures for the IC50 against β-lactamase and at Recombinant NDM-1 enzyme were 32.8 ± 2.59 µM and 24 ± 2.92 µM, respectively. Moreover, the FIC index in test [1] is given as 0.3125.
For `O=c1c2cc(O)c(O)cc2oc2cc(O)c([C@@H]3O[C@H](CO)[C@@H](O)[C@H](O)[C@H]3O)c(O)c12` [Mangiferin], in that order: 58 ± 2.08 µM, 30.6 ± 4.41 µM and 0.625.

The values are drawn from paper PMC8966755, “In Silico and In Vitro Screening of Natural Compounds as Broad-Spectrum β-Lactamase Inhibitors against Acinetobacter baumannii New Delhi Metallo-β-lactamase-1 (NDM-1)” (BioMed Research International, 2022).
